Assay results reported in patent US20250145665A1, “MACROCYCLIC PEPTIDES USEFUL AS MODULATORS OF TNF ALPHA” (Bristol-Myers Squibb Company, priority 2023, published 2025).
Starred links: 1 amine or outer side, 2 acyl side, 3 side chain; linkers in the order of their positions; H or OH if unused. Positions of bridges follow the written chain, without caps; N, C: chain ends. Non-standard residues stand in square brackets, D forms with d. Residues, ends and D or L forms follow the SMILES beside them. Bip(4'-COOH) = N[C@@H](Cc1ccc(-c2ccc(C(=O)O)cc2)cc1)C(=O)O; Bip(4'-NHAc) = CC(=O)Nc1ccc(-c2ccc(C[C@H](N)C(=O)O)cc2)cc1; Phe(3-CH2NH2) = O=C([C@H](Cc1cccc(CN[*:3])c1)N[*:1])[*:2]; Ala(morpholin-4-yl) = N[C@@H](CN1CCOCC1)C(=O)O; Phe(3-CONH2) = NC(=O)c1cccc(C[C@H](N)C(=O)O)c1; Bip = N[C@@H](Cc1ccc(-c2ccccc2)cc1)C(=O)O; Phe(3-OMe) = COc1cccc(C[C@H](N)C(=O)O)c1; Ala(2-furyl) = N[C@@H](Cc1ccco1)C(=O)O; Tiq1c(1S) = O=C(O)[C@H]1NCCc2ccccc21; Hyp = O=C(O)[C@@H]1C[C@@H](O)CN1; 2Pal = N[C@@H](Cc1ccccn1)C(=O)O; Tic = O=C(O)[C@@H]1Cc2ccccc2CN1; 2Thi = N[C@@H](Cc1cccs1)C(=O)O; Cha = N[C@@H](CC1CCCCC1)C(=O)O; Chg = N[C@H](C(=O)O)C1CCCCC1; Sar = CNCC(=O)O

What follows are compounds tested against TNFα (Homo sapiens, UniProt P01375) (assay: TNF-Induced HEK-Blue Assay). Settings: not given.
Assay type: cell-based

TNFα, sequence (P01375 77-233 limits assumed): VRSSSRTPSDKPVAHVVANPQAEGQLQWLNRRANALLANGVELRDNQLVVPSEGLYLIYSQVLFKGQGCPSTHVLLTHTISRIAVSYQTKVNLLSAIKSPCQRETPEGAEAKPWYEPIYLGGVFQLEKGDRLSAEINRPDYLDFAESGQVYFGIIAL

| SMILES | IC50 [µM] |
| --- | --- |
| CC(=O)Nc1ccc(-c2ccc(C[C@@H]3NC(=O)[C@H](Cc4ccc(-c5ccc(C(=O)O)cc5)cc4)NC(=O)[C@H](CC4CCCCC4)NC(=O)CSC[C@@H](C(=O)NCC(N)=O)NC(=O)[C@H](CC(C)C)NC(=O)[C@H](Cc4ccc(O)cc4)NC(=O)[C@H](C(C)C)NC(=O)[C@@H]4c5ccccc5CCN4C(=O)[C@H](C(C)C)NC(=O)[C@@H](CCCNC(=N)N)NC(=O)[C@H](CC(=O)O)NC(=O)[C@@H]4CCCN4C(=O)CN(C)C3=O)cc2)cc1 [Example 278] ({CH2CO}-[Cha][Bip(4'-COOH)][Bip(4'-NHAc)][Sar]PD[dR]V[Tiq1c(1S)]VYLCG-NH2; thioether N-13) | 0.05 to 0.2 |

Same assay, conditions: HEK-Blue-CD40L cells, NF-kB-driven secreted alkaline phosphatase reporter; TNFα 0.5 ng/ml; 18 h; read-out: TNF induced HEK-Blue assay IC50 value

| IC50 [µM] | SMILES |
| --- | --- |
| 0.05 to 0.2 | CC(=O)Nc1ccc(-c2ccc(C[C@@H]3NC(=O)[C@H](Cc4ccc(-c5ccc(C(=O)O)cc5)cc4)NC(=O)[C@H](CC4CCCCC4)NC(=O)CSC[C@@H](C(=O)NCC(N)=O)NC(=O)[C@H](CC(C)C)NC(=O)[C@H](Cc4ccc(O)cc4)NC(=O)[C@H](C(C)C)NC(=O)[C@@H]4Cc5ccccc5CN4C(=O)[C@H](C(C)C)NC(=O)[C@@H](CCCNC(=N)N)NC(=O)[C@H](CC(=O)O)NC(=O)[C@@H]4CCCN4C(=O)CN(C)C3=O)cc2)cc1 [Example 275] ({CH2CO}-[Cha][Bip(4'-COOH)][Bip(4'-NHAc)][Sar]PD[dR]V[Tic]VYLCG-NH2; thioether N-13) |
| < 0.05 | CC[C@H](C)[C@@H]1NC(=O)[C@@H](CCCNC(=N)N)NC(=O)[C@H](CC(=O)O)NC(=O)[C@H](Cc2cnc[nH]2)NC(=O)CN(C)C(=O)[C@H](Cc2ccc(-c3ccc(NC(C)=O)cc3)cc2)NC(=O)[C@H](Cc2ccc(-c3ccc(C(=O)O)cc3)cc2)NC(=O)[C@H](CC2CCCCC2)NC(=O)CSC[C@@H](C(=O)NCC(N)=O)NC(=O)[C@H](CC(C)C)NC(=O)[C@H](Cc2cnc[nH]2)NC(=O)[C@H](C(C)C)NC(=O)[C@@H]2c3ccccc3CCN2C1=O [Example 276] ({CH2CO}-[Cha][Bip(4'-COOH)][Bip(4'-NHAc)][Sar]HD[dR]I[Tiq1c(1S)]VHLCG-NH2; thioether N-13) |
| < 0.05 | CC[C@H](C)[C@@H]1NC(=O)[C@@H](CCCNC(=N)N)NC(=O)[C@H](CC(=O)O)NC(=O)[C@H](Cc2cnc[nH]2)NC(=O)CN(C)C(=O)[C@H](Cc2ccc(-c3ccc(NC(C)=O)cc3)cc2)NC(=O)[C@H](Cc2ccc(-c3ccc(C(=O)O)cc3)cc2)NC(=O)[C@H](CC2CCCCC2)NC(=O)CSC[C@@H](C(=O)NCC(N)=O)NC(=O)[C@H](CC(C)C)NC(=O)[C@H](Cc2cnc[nH]2)NC(=O)[C@H](C(C)C)NC(=O)[C@@H]2C[C@@H](O)CN2C1=O [Example 277] ({CH2CO}-[Cha][Bip(4'-COOH)][Bip(4'-NHAc)][Sar]HD[dR]I[Hyp]VHLCG-NH2; thioether N-13) |
| 0.05 to 0.2 | CC[C@H](C)[C@@H]1NC(=O)[C@@H](CCCNC(=N)N)NC(=O)[C@H](CC(=O)O)NC(=O)[C@@H]2c3ccccc3CCN2C(=O)CN(C)C(=O)[C@H](Cc2ccc(-c3ccc(NC(C)=O)cc3)cc2)NC(=O)[C@H](Cc2ccc(-c3ccc(C(=O)O)cc3)cc2)NC(=O)[C@H](CC2CCCCC2)NC(=O)CSC[C@@H](C(=O)NCC(N)=O)NC(=O)[C@H](CC(C)C)NC(=O)[C@H](Cc2ccc(O)cc2)NC(=O)[C@H](C(C)C)NC(=O)[C@@H]2CCCN2C1=O [Example 279] ({CH2CO}-[Cha][Bip(4'-COOH)][Bip(4'-NHAc)][Sar][Tiq1c(1S)]D[dR]IPVYLCG-NH2; thioether N-13) |
| 0.05 to 0.2 | CC(=O)Nc1ccc(-c2ccc(C[C@@H]3NC(=O)[C@H](Cc4ccc(-c5ccc(C(=O)O)cc5)cc4)NC(=O)[C@H](CC4CCCCC4)NC(=O)CSC[C@@H](C(=O)NCC(N)=O)NC(=O)[C@H](CC(C)C)NC(=O)[C@H](Cc4cnc[nH]4)NC(=O)[C@H](C(C)C)NC(=O)[C@@H]4CCCN4C(=O)[C@H](C4CCCCC4)NC(=O)[C@@H](CCCNC(=N)N)NC(=O)[C@H](CC(=O)O)NC(=O)[C@H](Cc4cnc[nH]4)NC(=O)CN(C)C3=O)cc2)cc1 [Example 280] ({CH2CO}-[Cha][Bip(4'-COOH)][Bip(4'-NHAc)][Sar]HD[dR][Chg]PVHLCG-NH2; thioether N-13) |
| 0.05 to 0.2 | CC[C@H](C)[C@@H]1NC(=O)[C@@H](CCCNC(=N)N)NC(=O)[C@H](CC(=O)O)NC(=O)[C@H](Cc2cnc[nH]2)NC(=O)CN(C)C(=O)[C@H](Cc2ccc(-c3ccc(NC(C)=O)cc3)cc2)NC(=O)[C@H](Cc2ccc(-c3ccc(C(=O)O)cc3)cc2)NC(=O)[C@H](CC2CCCCC2)NC(=O)CSC[C@@H](C(=O)NCC(N)=O)NC(=O)[C@H](CC(C)C)NC(=O)[C@H](Cc2ccc(OC)cc2)NC(=O)[C@H](C(C)C)NC(=O)[C@@H]2CCCN2C1=O [Example 281] ({CH2CO}-[Cha][Bip(4'-COOH)][Bip(4'-NHAc)][Sar]HD[dR]IPVY(Me)LCG-NH2; thioether N-13) |
| 0.05 to 0.2 | CC[C@H](C)[C@@H]1NC(=O)[C@@H](CCCNC(=N)N)NC(=O)[C@H](CC(=O)O)NC(=O)[C@H](Cc2cnc[nH]2)NC(=O)CN(C)C(=O)[C@H](Cc2ccc(-c3ccc(NC(C)=O)cc3)cc2)NC(=O)[C@H](Cc2ccc(-c3ccc(C(=O)O)cc3)cc2)NC(=O)[C@H](CC2CCCCC2)NC(=O)CSC[C@@H](C(=O)NCC(N)=O)NC(=O)[C@H](CC(C)C)NC(=O)[C@H](Cc2cccc(OC)c2)NC(=O)[C@H](C(C)C)NC(=O)[C@@H]2CCCN2C1=O [Example 282] ({CH2CO}-[Cha][Bip(4'-COOH)][Bip(4'-NHAc)][Sar]HD[dR]IPV[Phe(3-OMe)]LCG-NH2; thioether N-13) |
| < 0.05 | CC(=O)Nc1ccc(-c2ccc(C[C@@H]3NC(=O)[C@H](Cc4ccc(-c5ccccc5)cc4)NC(=O)[C@H](CC4CCCCC4)NC(=O)CSC[C@@H](C(=O)NCC(N)=O)NC(=O)[C@H](CC(C)C)NC(=O)[C@H](Cc4cccc(CN)c4)NC(=O)[C@H](C(C)C)NC(=O)[C@@H]4CCCN4C(=O)[C@H](C(C)C)NC(=O)[C@@H](CCCNC(=N)N)NC(=O)[C@H](CC(=O)O)NC(=O)[C@H](Cc4ccc(O)cc4)NC(=O)CN(C)C3=O)cc2)cc1 [Example 283] ({CH2CO}-[Cha][Bip][Bip(4'-NHAc)][Sar]YD[dR]VPV[Phe(3-CH2NH2)]LCG-NH2; thioether N-13) |
| 0.05 to 0.2 | CC[C@H](C)[C@@H]1NC(=O)[C@@H]2CCCN2C(=O)[C@H]([C@@H](C)CC)NC(=O)[C@@H](CCCNC(=N)N)NC(=O)[C@H](CC(=O)O)NC(=O)[C@H](Cc2ccccc2)NC(=O)CN(C)C(=O)[C@H](Cc2ccc(-c3ccc(NC(C)=O)cc3)cc2)NC(=O)[C@H](Cc2ccc(-c3ccc(C(=O)O)cc3)cc2)NC(=O)[C@H](CN2CCOCC2)NC(=O)CSC[C@@H](C(=O)NCC(N)=O)NC(=O)[C@H](CC(C)C)NC(=O)[C@H](Cc2cnc[nH]2)NC1=O [Example 284] ({CH2CO}-[Ala(morpholin-4-yl)][Bip(4'-COOH)][Bip(4'-NHAc)][Sar]FD[dR]IPIHLCG-NH2; thioether N-13) |
| < 0.05 | CC[C@H](C)[C@@H]1NC(=O)[C@@H]2CCCN2C(=O)[C@H]([C@@H](C)CC)NC(=O)[C@@H](CCCNC(=N)N)NC(=O)[C@H](CC(=O)O)NC(=O)[C@H](Cc2ccccn2)NC(=O)CN(C)C(=O)[C@H](Cc2ccc(-c3ccc(NC(C)=O)cc3)cc2)NC(=O)[C@H](Cc2ccc(-c3ccccc3)cc2)NC(=O)[C@H](CC2CCCCC2)NC(=O)CSC[C@@H](C(=O)NCC(N)=O)NC(=O)[C@H](CC(C)C)NC(=O)[C@H](Cc2cccc(C(N)=O)c2)NC1=O [Example 285] ({CH2CO}-[Cha][Bip][Bip(4'-NHAc)][Sar][2Pal]D[dR]IPI[Phe(3-CONH2)]LCG-NH2; thioether N-13) |
| 0.05 to 0.2 | CC[C@H](C)[C@@H]1NC(=O)[C@@H]2CCCN2C(=O)[C@H]([C@@H](C)CC)NC(=O)[C@@H](CCCNC(=N)N)NC(=O)[C@H](CC(=O)O)NC(=O)[C@@H]2CCCN2C(=O)CN(C)C(=O)[C@H](Cc2ccc(-c3ccc(NC(C)=O)cc3)cc2)NC(=O)[C@H](Cc2ccc(-c3ccc(C(=O)O)cc3)cc2)NC(=O)[C@H](CC2CCCCC2)NC(=O)CSC[C@@H](C(=O)NCC(N)=O)NC(=O)[C@H](CC(C)C)NC(=O)[C@H](Cc2ccc(O)cc2)NC1=O [Example 286] ({CH2CO}-[Cha][Bip(4'-COOH)][Bip(4'-NHAc)][Sar]PD[dR]IPIYLCG-NH2; thioether N-13) |
| < 0.05 | CC(=O)Nc1ccc(-c2ccc(C[C@@H]3NC(=O)[C@H](Cc4ccc(-c5ccc(C(=O)O)cc5)cc4)NC(=O)[C@H](CN4CCOCC4)NC(=O)CSC[C@@H](C(=O)NCC(N)=O)NC(=O)[C@H](CC(C)C)NC(=O)[C@H](Cc4ccccc4)NC(=O)[C@H](C(C)C)NC(=O)[C@@H]4CCCN4C(=O)[C@H](C(C)C)NC(=O)[C@@H](CCCNC(=N)N)NC(=O)[C@H](CC(=O)O)NC(=O)[C@H](Cc4ccc(O)cc4)NC(=O)CN(C)C3=O)cc2)cc1 [Example 287] ({CH2CO}-[Ala(morpholin-4-yl)][Bip(4'-COOH)][Bip(4'-NHAc)][Sar]YD[dR]VPVFLCG-NH2; thioether N-13) |
| 0.2 to 2 | CC(=O)Nc1ccc(-c2ccc(C[C@@H]3NC(=O)[C@H](Cc4ccc(-c5ccccc5)cc4)NC(=O)[C@H](CC4CCCCC4)NC(=O)CSC[C@@H](C(=O)NCC(N)=O)NC(=O)[C@H](CC(C)C)NC(=O)[C@H](Cc4ccco4)NC(=O)[C@H](C(C)C)NC(=O)[C@@H]4CCCN4C(=O)[C@H](C(C)C)NC(=O)[C@@H](CCCNC(=N)N)NC(=O)[C@H](CC(=O)O)NC(=O)[C@@H]4CCCN4C(=O)CN(C)C3=O)cc2)cc1 [Example 288] ({CH2CO}-[Cha][Bip][Bip(4'-NHAc)][Sar]PD[dR]VPV[Ala(2-furyl)]LCG-NH2; thioether N-13) |
| 0.05 to 0.2 | CC(=O)Nc1ccc(-c2ccc(C[C@@H]3NC(=O)[C@H](Cc4ccc(-c5ccccc5)cc4)NC(=O)[C@H](CC4CCCCC4)NC(=O)CSC[C@@H](C(=O)NCC(N)=O)NC(=O)[C@H](CC(C)C)NC(=O)[C@H](Cc4cccs4)NC(=O)[C@H](C(C)C)NC(=O)[C@@H]4CCCN4C(=O)[C@H](C(C)C)NC(=O)[C@@H](CCCNC(=N)N)NC(=O)[C@H](CC(=O)O)NC(=O)[C@@H]4CCCN4C(=O)CN(C)C3=O)cc2)cc1 [Example 289] ({CH2CO}-[Cha][Bip][Bip(4'-NHAc)][Sar]PD[dR]VPV[2Thi]LCG-NH2; thioether N-13) |
